Our source for the IC50 values is PMC9989937, “In-vitro antioxidant, lipoxygenase inhibitory, and in-vivo muscle relaxant potential of the extract and constituent isolated from Diospyros kaki (Japanese Persimmon)” (Heliyon, 2023).

Assay [1] deals with T1, lipoxygenase (EC 1.13.11.12) Type 1 (soybean) (Glycine max, UniProt P08170).
T1 construct: gene LOX1.1
T1 sequence (P08170 1-839): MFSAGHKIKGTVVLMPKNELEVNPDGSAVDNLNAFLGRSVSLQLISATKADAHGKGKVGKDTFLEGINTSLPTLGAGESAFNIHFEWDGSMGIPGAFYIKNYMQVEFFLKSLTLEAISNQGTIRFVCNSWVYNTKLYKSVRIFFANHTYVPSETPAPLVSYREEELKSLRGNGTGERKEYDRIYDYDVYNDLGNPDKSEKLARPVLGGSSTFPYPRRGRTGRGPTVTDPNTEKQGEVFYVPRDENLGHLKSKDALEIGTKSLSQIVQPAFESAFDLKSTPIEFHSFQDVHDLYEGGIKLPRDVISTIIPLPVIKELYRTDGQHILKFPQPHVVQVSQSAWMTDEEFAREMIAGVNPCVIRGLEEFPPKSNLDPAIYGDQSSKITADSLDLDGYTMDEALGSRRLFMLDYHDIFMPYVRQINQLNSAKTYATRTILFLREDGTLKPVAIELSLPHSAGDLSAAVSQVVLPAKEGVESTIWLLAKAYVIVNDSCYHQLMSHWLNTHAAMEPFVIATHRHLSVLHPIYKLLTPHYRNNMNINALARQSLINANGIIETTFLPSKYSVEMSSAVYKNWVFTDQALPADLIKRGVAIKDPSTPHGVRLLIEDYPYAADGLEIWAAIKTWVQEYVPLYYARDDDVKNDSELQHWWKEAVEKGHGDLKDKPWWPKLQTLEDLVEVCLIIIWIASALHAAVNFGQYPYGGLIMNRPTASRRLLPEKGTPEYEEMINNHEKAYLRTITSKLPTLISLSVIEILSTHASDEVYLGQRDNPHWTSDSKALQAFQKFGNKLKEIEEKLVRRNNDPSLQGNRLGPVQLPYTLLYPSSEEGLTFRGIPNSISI
Nature of the assay: spectrophotometric lipoxygenase inhibition assay with linoleic acid substrate. It is filed as biochemical.

In assay [2] the target is T1, lipoxygenase (EC 1.13.11.12) Type 1 (soybean). Briefly: spectrophotometric lipoxygenase inhibition assay with linoleic acid substrate (positive control). It is filed as biochemical.

In the case of `COc1c(C)c(-c2cc(O)c3c(c2O)C(=O)C(C)=CC3=O)c(OC)c2c1C(=O)C=CC2=O` [compound 1, 1′,4′-dihydroxy-1,4-dimethoxy-3,7′-dimethyl-[2,2′-binaphthalene]-5,5′,8,8′-tetraone], in assay [1], the IC50 came out at 37 µM.
Take `NC(=O)N1C(=O)/C(=C(\O)c2cccs2)c2cc(Cl)ccc21` [Tenidap]: in assay [2] (read-out: IC50), the IC50 is 23 µM.
Take `O=c1cc(-c2ccccc2)oc2cc(O)c(O)c(O)c12` [Baicalein]: the IC50 in assay [2] came out at 40.9 µM.
